Results taken from patent publication US20040106148A1, “Polypeptides” (priority 2000, published 2004).

Columns and labels:
[1] = target: T1, human TAPP1 C-terminal PH domain (CT-PH TAPP1, residues 95 to 404), GST fusion (Homo sapiens, UniProt Q9HB21, T320A); assay: Surface plasmon resonance (BIACore), GST fusion binding to phosphoinositide in supported lipid monolayer; conditions: supported phosphatidylcholine monolayers, 1:1 binding model, read-out: Apparent Kd
T1 construct: made in house; host or cells: human embryonic kidney 293 cells (pEBG-2T)
T1 sequence (Q9HB21 95-404 T320A): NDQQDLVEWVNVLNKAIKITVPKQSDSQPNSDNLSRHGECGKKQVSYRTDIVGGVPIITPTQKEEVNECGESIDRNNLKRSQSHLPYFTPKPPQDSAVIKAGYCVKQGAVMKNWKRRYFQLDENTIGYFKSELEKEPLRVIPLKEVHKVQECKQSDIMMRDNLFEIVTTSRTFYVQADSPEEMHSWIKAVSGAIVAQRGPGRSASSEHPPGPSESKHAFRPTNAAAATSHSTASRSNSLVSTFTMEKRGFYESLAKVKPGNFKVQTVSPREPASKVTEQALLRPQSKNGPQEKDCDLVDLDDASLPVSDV
Excerpt: Cloning of PH domains and preparation of expression constructs. All the human and mouse EST's were obtained from the I.M.A.G.E. Consortium and sequenced. The plant EST (accession number T04439) encoding a full length clone of AtPH1 was obtained from the Arabidopsis Biological Research. Centre (Ohio University). The sequence of each EST was verified and the full length PH domain of each EST was amplified by PCR using the Hi-fidelity PCR system with primers designed to incorporate a Kozak site, an initiating ATG codon followed by a myc epitope tag and a stop codon after the PH domain. […]
Kinetic analyses of the interactions between the GST PH domain fusions and the polyphosphoinositides were made using surface plasmon resonance based procedures as described previously, with the following modifications. […] Data were analysed using the bimolecular interaction model and the global fitting feature of the BIAevaluation 3 software for several sensorgrams at different protein concentrations. […] The relative binding affinities of each protein relative to the binding of full length GST-TAPP1 to PtdIns(3,4)P2 were also calculated.
We studied the specificity and affinity of interaction of the PH domains for phosphoinositide lipids using either a “protein-lipid overlay” assay (FIG. 2) or the more quantitative surface plasmon resonance based approach (Table 2). […]

[2] = target: human TAPP1 C-terminal PH domain, mutant R212L (Arg212 to Leu), GST fusion (Homo sapiens, UniProt Q9HB21, R211L); assay: Protein-lipid overlay; format: binding; conditions: FIG. 4B
human TAPP1 C-terminal PH domain, mutant R212L (Arg212 to Leu), GST fusion, sequence (Q9HB21 95-404 R211L): as the sequence (Q9HB21 95-404 T320A) above, with R117L, A226T counted along it
Method: (§1) FIG. 4. Comparison of the phosphoinositide binding properties of the N-terminal and C-terminal PH domains of TAPP1 and TAPP2. The ability of wild type and mutant forms of full length (FL) and isolated N-terminal (NT) and C-terminal (CT) PH domains of TAPP1 and TAPP2 GST-fusion proteins to interact with phosphoinositides were analysed using a protein-lipid overlay. Serial dilutions of the indicated phosphoinositides (100 pmol, 50 pmol, 25 pmol, 12.5 pmol, 6.3 pmol, 3.1 pmol and 1.6 pmol) were spotted onto a nitrocellulose membrane which was then incubated with the indicated purified GST fusion proteins. The membranes were washed and the GST-fusion proteins bound to the membrane by virtue of their interactions with lipid were detected using a GST antibody. A representative experiment of three is shown. The isolated N-terminal PH domain of human TAPP1 comprises residues 1 to 147, the isolated C-terminal PH domain of human TAPP1 comprises residues 95 to 404, the isolated N-terminal PH domain of mouse TAPP2 comprises residues 1 to 131 and the isolated C-terminal PH of mouse TAPP2 comprises residues 174 to 425.
(§2) Protein-Lipid overlay. To assess the phosphoinositide binding properties of each PH domain, a protein-lipid overlay assay was performed using the GST fusion proteins as described previously. Briefly, 1 μl of lipid solution containing 1-100 pmol of phospholipids dissolved in a mixture of choroform:methanol:water (1:2:0.8) was spotted onto Hybond-C extra membrane and allowed to dry at room temperature for 1 h. The membrane was blocked in 3% (by mass) fatty acid-free BSA in TBST (50 mM Tris/HCl pH 7.5, 150 mM NaCl and 0.1% Tween-20 (by vol) for lh. The membrane was then incubated overnight at 4° C. with gentle agitation in the same solution containing 0.2 μg/ml of the indicated GST fusion protein. The membranes were washed 6 times over 30 min in TBST and then incubated for 1 h with 1/1000 dilution of anti-GST monoclonal antibody (Sigma). The membranes were washed as before, then incubated for 1 h with 1/5000 dilution of anti-mouse-HRP conjugate (Pierce). Finally, the membranes were washed 12 times over 1 h in TBST and the GST-fusion protein bound to the membrane by virtue of its interaction with phospholipid was detected by enhanced chemiluminescence.

[3] = target: human TAPP1 C-terminal PH domain, mutant W281L (Trp281 to Leu), GST fusion (Homo sapiens, UniProt Q9HB21, W280L); assay: Protein-lipid overlay; format: binding; conditions: FIG. 4B
human TAPP1 C-terminal PH domain, mutant W281L (Trp281 to Leu), GST fusion, sequence (Q9HB21 95-404 W280L): as the sequence (Q9HB21 95-404 T320A) above, with W186L, A226T counted along it
Method: as §1, §2

[4] = target: mouse TAPP2, full length, wild type, GST fusion (Mus musculus, UniProt Q9ERS5); assay: Protein-lipid overlay; format: binding; conditions: FIG. 4C and Table 2
mouse TAPP2, full length, wild type, GST fusion, sequence (Q9ERS5 whole entry, the tested form may be a part): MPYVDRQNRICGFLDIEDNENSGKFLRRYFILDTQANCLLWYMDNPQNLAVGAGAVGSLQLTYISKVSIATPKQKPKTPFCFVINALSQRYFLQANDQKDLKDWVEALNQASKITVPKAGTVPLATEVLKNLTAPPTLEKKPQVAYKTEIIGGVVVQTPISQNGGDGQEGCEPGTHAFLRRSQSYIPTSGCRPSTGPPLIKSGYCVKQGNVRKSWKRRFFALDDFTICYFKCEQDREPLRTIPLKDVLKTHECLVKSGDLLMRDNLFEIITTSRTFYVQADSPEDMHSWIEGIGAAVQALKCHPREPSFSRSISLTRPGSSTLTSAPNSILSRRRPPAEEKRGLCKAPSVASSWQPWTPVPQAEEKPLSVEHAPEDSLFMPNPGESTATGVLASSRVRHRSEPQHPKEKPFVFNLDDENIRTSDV
Method: as §1, §2

GST-DAPP1 = conditions: control; cited from earlier work

Kd [1]: 27 nM
effect of mutation on interaction [2]: abolished the interaction
effect of mutation on interaction [3]: abolished the interaction
phosphoinositide binding [4]: interacted specifically
SMILES: CCCCCCCCCCCCCCCC(=O)OC[C@H](COP(=O)(O)O[C@H]1[C@H](O)[C@@H](O)[C@H](OP(=O)(O)O)[C@@H](OP(=O)(O)O)[C@H]1O)OC(=O)CCCCCCCCCCCCCCC [PtdIns(3,4)P2]
phosphoinositide binding (GST-DAPP1): binds
